pIC50: −log10 of the molar value. Activity calls are given as the source filed them. No cut-off for these calls is given here.
Assays:
Beta-secretase 1 = Beta-secretase 1 (Homo sapiens, UniProt P56817); experiment: Inhibition of human recombinant BACE1 using M-2420 as substrate preincubated for 1 hr followed by substrate addition incubated for 15 mins by FRET assay
[1] = target: Glycogen synthase kinase-3 beta (Homo sapiens, UniProt P49841); experiment: Inhibition of human recombinant GSK3-beta using prephosphorylated polypeptide as substrate incubated for 30 mins by Glo-type luminescence assay
[2] = Chemical stability of the compound in phosphate and borate buffer assessed as formation of degradation product at pH 7.4 and 9.2 incubated for 3 days by RP-HPLC analysis; type: physicochemical; conditions: pH 7.4, 72 h
[3] = Cytotoxicity against human T67 cells up to 20 uM after 24 hrs by MTT assay; type: cell-based; conditions: t67, 24 h
T67 [4] = experiment: Neuroprotective effect in human T67 cells assessed as inhibition of TBH-induced ROS formation at 10 uM after 30 mins by DCFH-DA fluorescent probe-based spectrofluorimetric analysis; type: functional, cell-based
T67 [5] = experiment: Neuroprotective effect in human T67 cells assessed as increase in NQO1 activity using DCIP as substrate; type: functional, cell-based
[6] = Permeability of the compound by PAMPA-BBB assay; type: ADME; conditions: read-out: permeability
[7] = Cytotoxicity against human T67 cells at 10 uM after 24 hrs by MTT assay; type: cell-based; conditions: t67, 24 h
[8] = Cytotoxicity against human T67 cells at 20 uM after 24 hrs by MTT assay; type: cell-based; conditions: t67, 24 h
[9] = Chemical stability of the compound in phosphate and borate buffer at pH 7.4 and 9.2 incubated for 3 days by RP-HPLC analysis; type: physicochemical; conditions: pH 7.4, 72 h

Sequence of Glycogen synthase kinase-3 beta (P49841 whole entry): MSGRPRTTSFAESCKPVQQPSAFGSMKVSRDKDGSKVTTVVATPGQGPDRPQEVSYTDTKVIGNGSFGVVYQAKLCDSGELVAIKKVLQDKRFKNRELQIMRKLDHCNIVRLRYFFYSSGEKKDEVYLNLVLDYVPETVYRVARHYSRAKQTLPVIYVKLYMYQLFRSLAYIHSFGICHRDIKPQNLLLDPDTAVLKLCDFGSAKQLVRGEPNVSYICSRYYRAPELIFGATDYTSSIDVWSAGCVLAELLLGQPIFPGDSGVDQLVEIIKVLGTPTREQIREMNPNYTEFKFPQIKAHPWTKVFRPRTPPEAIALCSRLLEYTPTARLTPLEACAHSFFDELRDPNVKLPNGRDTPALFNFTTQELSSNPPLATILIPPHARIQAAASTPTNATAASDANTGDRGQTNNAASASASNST
Sequence of Beta-secretase 1 (P56817 whole entry): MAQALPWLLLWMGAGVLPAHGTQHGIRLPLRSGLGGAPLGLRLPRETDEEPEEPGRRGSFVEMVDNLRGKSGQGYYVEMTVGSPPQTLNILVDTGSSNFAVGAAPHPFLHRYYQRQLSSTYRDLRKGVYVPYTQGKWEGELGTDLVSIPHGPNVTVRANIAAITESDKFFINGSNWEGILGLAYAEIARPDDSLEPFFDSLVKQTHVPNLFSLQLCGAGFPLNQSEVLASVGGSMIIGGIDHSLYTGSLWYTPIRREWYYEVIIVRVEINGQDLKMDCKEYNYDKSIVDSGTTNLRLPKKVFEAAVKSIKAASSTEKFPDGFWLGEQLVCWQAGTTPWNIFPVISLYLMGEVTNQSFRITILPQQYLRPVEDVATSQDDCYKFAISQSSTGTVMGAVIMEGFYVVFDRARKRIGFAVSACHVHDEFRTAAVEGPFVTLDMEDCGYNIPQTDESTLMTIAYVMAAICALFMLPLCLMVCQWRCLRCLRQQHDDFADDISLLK

Compound | pIC50 (Beta-secretase 1) | pIC50 [1] | Stability [2] | Activity [3] | Activity (T67 [4]) | Activity (T67 [5]) | Papp [6] | Activity [7] | Activity [8] | Stability [9]
COc1ccc(/C=C/C(=O)CC(=O)/C=C/c2ccc(OC)cc2)cc1 | < 5.30 | 4.82 | Unstable | – | – | – | – | – | – | –
COc1cc(/C=C/C(O)=C/C(=O)/C=C/c2ccc(OCc3ccccc3)cc2)ccc1O | 6.01 | 6.05 | – | Non-toxic | Active | Active | 7.7 ×10⁻⁶ cm/s | – | – | –
O=C(/C=C(O)/C=C/c1ccc(OCc2ccc(F)cc2F)cc1)/C=C/c1ccc(OCc2ccc(F)cc2F)cc1 | 6.40 | 5.02 | – | – | – | – | – | – | – | –
O=C(/C=C/c1ccc(OCc2cc(F)cc(F)c2)cc1)CC(=O)/C=C/c1ccc(OCc2cc(F)cc(F)c2)cc1 | 6.14 | 5.02 | – | – | – | – | – | – | – | –
COc1cc(/C=C/C(=O)CC(=O)/C=C/c2ccc(O)c(OC)c2)ccc1O [CURCUMIN] | – | 4.75 | – | Non-toxic | – | Active | 2.5 ×10⁻⁶ cm/s | – | – | –
O=C(/C=C(O)/C=C/c1ccc(OCc2ccccc2)cc1)/C=C/c1ccc(O)cc1 | 5.57 | 5.70 | – | Toxic | inactive | Active | – | – | – | –
O=C(/C=C(O)/C=C/c1ccc(O)cc1)/C=C/c1ccc(O)cc1 | – | 5.08 | – | – | inactive | Active | 7.8 ×10⁻⁶ cm/s | Non-toxic | Toxic | –
O=C(/C=C/c1ccc(OCc2ccc(F)cc2F)cc1)CC(=O)/C=C/c1ccc(OCc2ccc(F)cc2F)cc1 | 6.00 | 5.04 | – | – | – | – | – | – | – | –
COc1cc(/C=C/C(O)=C/C(=O)/C=C/c2ccc(C)cc2)ccc1O | 6.85 | 5.68 | – | Non-toxic | inactive | Active | 8.2 ×10⁻⁶ cm/s | – | – | –
COc1ccc(/C=C/C(=O)/C=C(O)/C=C/c2ccc(OCc3ccccc3)cc2)cc1 | 5.64 | 5.56 | – | Non-toxic | inactive | Active | 7 ×10⁻⁶ cm/s | Non-toxic | – | –
COc1ccc(/C=C/C(=O)/C=C(O)/C=C/c2ccc(OC)cc2)cc1 | 5.78 | 6.28 | – | – | inactive | Active | 2.8 ×10⁻⁶ cm/s | Non-toxic | – | Stable
O=C(/C=C(O)/C=C/c1ccc(OCc2ccc(F)cc2)cc1)/C=C/c1ccc(OCc2ccc(F)cc2)cc1 | 5.98 | 4.89 | – | – | – | – | – | – | – | –
O=C(/C=C/c1ccc(OCc2ccccc2)cc1)CC(=O)/C=C/c1ccc(OCc2ccccc2)cc1 | 5.22 | 5.25 | – | – | – | – | – | – | – | –
O=C(/C=C(O)/C=C/c1ccc(OCc2cccc(F)c2)cc1)/C=C/c1ccc(OCc2cccc(F)c2)cc1 | 5.97 | 4.77 | – | – | – | – | – | – | – | –
O=C(/C=C(O)/C=C/c1ccc(OCc2cc(F)cc(F)c2)cc1)/C=C/c1ccc(OCc2cc(F)cc(F)c2)cc1 | 6.41 | 5.08 | – | – | – | – | – | – | – | –
O=C(/C=C(O)/C=C/c1ccc(OCc2ccccc2)cc1)/C=C/c1ccc(OCc2ccccc2)cc1 | 7.40 | 5.60 | – | Non-toxic | Active | Active | 3.6 ×10⁻⁶ cm/s | – | – | –
